From ChEMBL document CHEMBL4000174, “Synthesis and antitumor activity of novel substituted uracil-1'(N)-acetic acid ester derivatives of 20(S)-camptothecins” (Eur J Med Chem, 2017)
Active and inactive are the calls of the source. The calls are words filed in the database; no cut-off is given here.

Key:
[1] = test system: Mus musculus; test: Toxicity in BALB/c nude mouse xenografted with human Bel7402 cells assessed as body weight at 30 mg/kg, ip administered once in a week for two weeks starting from 6 days post tumor transplantation measured every 3 days for 21 days (reference value: 14.5 g); assay type: organism-based; conditions: in vivo, 504 h
[2] = test system: A549; test: Induction of apoptosis in human A549 cells assessed as early apoptotic cells at 8 nM after 24 hrs by Annexin V-FITC/propidium iodide staining based flow cytometry (reference value: 0.50%); assay type: functional
[3] = test system: A549; test: Cell cycle arrest in human A549 cells assessed as accumulation at S phase at 8 nM after 24 hrs by propidium iodide staining based flow cytometry (reference value: 32.80%); assay type: functional
[4] = test system: A2780; test: Antiproliferative activity against human A2780 cells after 96 hrs by MTT assay; assay type: functional, cell-based; conditions: A2780, 96 h
[5] = test system: A549; test: Induction of apoptosis in human A549 cells assessed as decrease in Bcl-2 protein level at 8 to 75 nM by Western blot method; assay type: functional, cell-based
[6] = test system: H22; test: Antitumor activity against mouse H22 cells implanted in Kunming mouse assessed as tumor growth inhibition at 40 mg/kg, ip administered on day 1 and day 5 relative to control relative to control; assay type: functional; conditions: read-out: TGI
[7] = test system: A549; test: Induction of apoptosis in human A549 cells assessed as necrotic cells at 75 nM after 24 hrs by Annexin V-FITC/propidium iodide staining based flow cytometry (reference value: 7.62%); assay type: functional
[8] = test system: Mus musculus; test: Toxicity in BALB/c nude mouse xenografted with human BGC823 cells assessed as mouse survival at 30 mg/kg, ip administered once in a week for two weeks starting from 6 days post tumor transplantation; assay type: organism-based; conditions: in vivo, 144 h
[9] = test system: A549; test: Induction of apoptosis in human A549 cells assessed as late apoptotic cells at 8 nM after 24 hrs by Annexin V-FITC/propidium iodide staining based flow cytometry (reference value: 2.47%); assay type: functional
[10] = test system: H22; test: Antitumor activity against mouse H22 cells implanted in Kunming mouse assessed as tumor growth inhibition at 60 mg/kg, ip administered twice relative to control; assay type: functional; conditions: read-out: TGI
[11] = test system: A549; test: Cell cycle arrest in human A549 cells assessed as accumulation at G0/G1 phase at 75 nM after 24 hrs by propidium iodide staining based flow cytometry (reference value: 58.84%); assay type: functional
[12] = test system: A549; test: Cell cycle arrest in human A549 cells assessed as accumulation at G0/G1 phase at 25 nM after 24 hrs by propidium iodide staining based flow cytometry (reference value: 58.84%); assay type: functional
[13] = test system: Mus musculus; test: Toxicity in BALB/c nude mouse xenografted with human BGC823 cells assessed as body weight at 60 mg/kg, ip administered once in a week for two weeks starting from 6 days post tumor transplantation and measured every 3 days during compound dosing for 15 days (reference value: 23.6 g); assay type: organism-based; conditions: in vivo, 360 h
[14] = test system: BGC-823; test: Antiproliferative activity against human BGC823 cells after 96 hrs by MTT assay; assay type: functional, cell-based; conditions: BGC-823, 96 h
[15] = test system: Bel-7402; test: Antitumor activity against human Bel7402 cells xenografted in BALB/c nude mouse assessed as tumor growth inhibition at 60 mg/kg, ip administered once in a week for two weeks starting from 6 days post tumor transplantation measured 27 to 30 days post tumor transplantation relative to control; assay type: functional; conditions: Bel-7402, ip, read-out: TGI
[16] = test system: Bel-7402; test: Antitumor activity against human Bel7402 cells xenografted in BALB/c nude mouse assessed as tumor volume at 30 mg/kg, ip administered once in a week for two weeks starting from 6 days post tumor transplantation measured 27 to 30 days post tumor transplantation relative to control; assay type: functional
[17] = test system: A549; test: Cell cycle arrest in human A549 cells assessed as accumulation at S phase at 75 nM after 24 hrs by propidium iodide staining based flow cytometry (reference value: 32.80%); assay type: functional
[18] = test system: A549; test: Induction of apoptosis in human A549 cells assessed as cell shrinkage after 24 hrs by phase contrast microscopy; assay type: functional, cell-based
[19] = test system: A549; test: Cell cycle arrest in human A549 cells assessed as accumulation at G2/M phase at 8 nM after 24 hrs by propidium iodide staining based flow cytometry (reference value: 8.36%); assay type: functional
[20] = test system: A549; test: Induction of apoptosis in human A549 cells assessed as viable cells at 75 nM after 24 hrs by Annexin V-FITC/propidium iodide staining based flow cytometry (reference value: 89.41%); assay type: functional; conditions: A549, 24 h, read-out: Activity
[21] = test system: Mus musculus; test: Toxicity in BALB/c nude mouse xenografted with human Bel7402 cells assessed as survival at 60 mg/kg, ip administered once in a week for two weeks starting from 6 days post tumor transplantation measured every 3 days for 21 days; assay type: organism-based; conditions: in vivo, 504 h
[22] = test system: A549; test: Induction of apoptosis in human A549 cells assessed as late apoptotic cells at 25 nM after 24 hrs by Annexin V-FITC/propidium iodide staining based flow cytometry (reference value: 2.47%); assay type: functional
[23] = test system: A549; test: Cell cycle arrest in human A549 cells assessed as accumulation at G0/G1 phase at 8 nM after 24 hrs by propidium iodide staining based flow cytometry (reference value: 58.84%); assay type: functional
[24] = test system: A549; test: Cell cycle arrest in human A549 cells assessed as accumulation at G2/M phase at 25 nM after 24 hrs by propidium iodide staining based flow cytometry (reference value: 8.36%); assay type: functional
[25] = test system: A549; test: Induction of apoptosis in human A549 cells assessed as late apoptotic cells at 75 nM after 24 hrs by Annexin V-FITC/propidium iodide staining based flow cytometry (reference value: 2.47%); assay type: functional
[26] = test system: A549; test: Induction of apoptosis in human A549 cells assessed as increase in Bax protein level at 8 to 75 nM by Western blot method; assay type: functional, cell-based
[27] = test system: Mus musculus; test: Toxicity in BALB/c nude mouse xenografted with human BGC823 cells assessed as tumor volume at 30 mg/kg, ip administered once in a week for two weeks starting from 6 days post tumor transplantation and measured every 3 days during compound dosing for 15 days (reference value: […]); conditions: in vivo, 360 h
[28] = test system: Mus musculus; test: Toxicity in Kunming mouse implanted with mouse H22 cells assessed as body weight at 60 mg/kg, ip administered twice (reference value: 31.1 g); assay type: organism-based; conditions: in vivo

Compound: CCc1c2c(nc3ccccc13)-c1cc3c(c(=O)n1C2)COC(=O)[C@@]3(CC)OC(=O)Cn1cc(F)c(=O)[nH]c1=O
- Activity [1]: Non-Toxic
- Activity [2]: 3%
- Activity [3]: 36.5%
- IC50 [4]: 147 nM
- Activity [5]: Active
- inhibition in vivo at 40 mg/kg [6]: 57.5%
- Activity [7]: 10.77%
- Activity [8]: Non-Toxic
- Activity [9]: 13.06%
- inhibition in vivo at 60 mg/kg [10]: 64.5%
- Activity [11]: 2.17%
- Activity [12]: 7.09%
- Activity [13]: 21.9 g
- IC50 [14]: 32 nM
- inhibition in vivo at 60 mg/kg [15]: 81.5%
- T/C [16]: 41.17%
- Activity [17]: 30.76%
- Activity [18]: Dose-dependent effect
- Activity [19]: 31.21%
- viability at 0.075 µM [20]: 30.6%
- Activity [21]: Non-Toxic
- Activity [22]: 26.6%
- Activity [23]: 32.28%
- Activity [24]: 71.74%
- Activity [25]: 34.98%
- Activity [26]: Active
- tumor volume [27]: 334 mm³
- Activity [28]: 27.2 g
